Data on eight compounds can be found in PubChem BioAssay (NCI).

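Interpolation was linear, between the two tested concentrations surrounding the appropriate level; five concentrations were tested over 48 hours in 96-well plates. The concentration for full growth arrest is given as TGI.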

Among the test systems are MDA-MB-435; PC-3 prostate; A498 renal; RPMI-8226 leukemia; OVCAR-4 ovarian; MDA-N; BT-549 breast; MCF7 breast; HCT-15 colon; SW-620 colon; KM12 colon; NCI/ADR-RES ovarian; IGROV1 ovarian; SN12C renal; HOP-92 NSCLC; UO-31 renal; SK-MEL-2 melanoma; NCI-H23 lung; NCI-H522 lung; SK-OV-3 ovarian.
Experiment in all cases: growth of human tumour cells (NCI), 48 h

For `Cn1c(=O)cc(NNc2ccc(Br)cc2)[nH]c1=O`, the TGI is 25.3 µM in the assay with MDA-MB-435; 22.1 µM with PC-3 prostate; over 100 µM in the assay on A498 renal; 46 µM with RPMI-8226 leukemia; 30.3 µM with OVCAR-4 ovarian; 28.6 µM in the assay with MDA-N. Further, the TGI with BT-549 breast was 30.6 µM; with MCF7 breast, 26.8 µM; in the assay with HCT-15 colon, 19.6 µM; with SW-620 colon it was 15.6 µM; in the assay with KM12 colon it was 10.4 µM; in the assay with NCI/ADR-RES ovarian, over 100 µM. The TGI worked out at 23.1 µM in the assay with IGROV1 ovarian, 22.6 µM with SN12C renal, 27.7 µM with HOP-92 NSCLC and 30 µM in the assay with UO-31 renal.
As for `OC(c1ccc(F)cc1)C(F)(F)c1nc(-c2ccccc2)no1` (stereo not drawn), the TGI came to 35.6 µM in the assay with MDA-MB-435; 63.4 µM in the assay with PC-3 prostate; 39.2 µM in the assay with A498 renal; 39.1 µM with SK-MEL-2 melanoma; 74.7 µM in the assay on NCI-H23 lung; 41.5 µM in the assay on OVCAR-4 ovarian. Moreover, the TGI with MDA-N is 62.7 µM; in the assay with BT-549 breast it was 36.8 µM; with MCF7 breast, 50.3 µM; in the assay on HCT-15 colon, 63 µM; in the assay on SW-620 colon, 58.9 µM; in the assay with NCI/ADR-RES ovarian, over 100 µM. In addition, the TGI in the assay on IGROV1 ovarian was over 100 µM; in the assay on SN12C renal, 39.8 µM; in the assay with HOP-92 NSCLC, 91.9 µM; in the assay on NCI-H522 lung, over 100 µM; in the assay on UO-31 renal, 35.4 µM.
As to `Oc1ccc(-c2c3ccccc3c(-c3ccc(OCCBr)cc3)c3ccccc23)cc1`, the TGI in the assay on MDA-MB-435 is 42 µM; in the assay on PC-3 prostate it was 73.2 µM; in the assay with SK-OV-3 ovarian it was over 100 µM; in the assay with A498 renal, 40 µM; in the assay with RPMI-8226 leukemia it was 63.5 µM; in the assay on SK-MEL-2 melanoma, 63.5 µM. Besides, the TGI with NCI-H23 lung stood at 34.9 µM; in the assay on OVCAR-4 ovarian it was 58.3 µM; in the assay on MDA-N it was 59.8 µM; in the assay on BT-549 breast, 57.4 µM; in the assay on MCF7 breast, 32 µM; in the assay on HCT-15 colon, 77.4 µM. Moreover, the TGI was over 100 µM in the assay with SW-620 colon; 83.6 µM in the assay on KM12 colon; 75.6 µM with NCI/ADR-RES ovarian; 44.2 µM in the assay on IGROV1 ovarian; 59.9 µM in the assay with SN12C renal; 74 µM in the assay on NCI-H522 lung. The compound further registered a TGI with UO-31 renal of over 100 µM.
Turning to `CCN(CC)CCCC(C)NC(=O)c1cc(-c2nccn2C)nc2ccc(C)cc12` (stereo not drawn), the TGI in the assay with MDA-MB-435, with PC-3 prostate, with A498 renal, with RPMI-8226 leukemia, in the assay with SK-MEL-2 melanoma and in the assay on NCI-H23 lung was over 100 µM each time. Also, the TGI with OVCAR-4 ovarian, in the assay with MDA-N, in the assay on BT-549 breast, in the assay on MCF7 breast, with HCT-15 colon and in the assay with SW-620 colon was over 100 µM throughout. The TGI in the assay on KM12 colon, with NCI/ADR-RES ovarian, in the assay on IGROV1 ovarian, with HOP-92 NSCLC and with UO-31 renal was over 100 µM each time.
As for `COC(=O)C1=C(C(=O)OC)SC(=C2c3ccsc3-c3sccc32)S1`, the TGI in the assay with MDA-MB-435 was over 100 µM; in the assay with PC-3 prostate it was over 100 µM; with SK-OV-3 ovarian, 49.3 µM; in the assay on A498 renal it was 71.4 µM; in the assay on RPMI-8226 leukemia, over 100 µM; in the assay with NCI-H23 lung it was 56.2 µM. Also, the TGI in the assay on MDA-N, with BT-549 breast, in the assay with MCF7 breast, in the assay with HCT-15 colon, with SW-620 colon and in the assay with KM12 colon was over 100 µM each time. The TGI in the assay on NCI/ADR-RES ovarian, with IGROV1 ovarian, in the assay on SN12C renal and in the assay with UO-31 renal was over 100 µM in each case.
As to `CCOC(=O)N1CC2(C(=O)OC)C=CC1C(C(=O)OC)C2` (stereo not drawn), the TGI with MDA-MB-435, with PC-3 prostate, with SK-OV-3 ovarian, in the assay on A498 renal, with RPMI-8226 leukemia and in the assay with SK-MEL-2 melanoma was over 100 µM in each case. For the same compound, the TGI in the assay with NCI-H23 lung, in the assay with OVCAR-4 ovarian, in the assay with MDA-N, with BT-549 breast, in the assay on MCF7 breast and with HCT-15 colon was over 100 µM throughout. In addition, the TGI with SW-620 colon, in the assay with KM12 colon, in the assay on NCI/ADR-RES ovarian, in the assay with IGROV1 ovarian, in the assay with SN12C renal and in the assay on NCI-H522 lung was over 100 µM each time. The TGI in the assay with UO-31 renal was over 100 µM.
Regarding `COCC[N+](CCNC(=O)c1cccc2c(N)c3cccc(C)c3nc12)(CCOC)Cc1ccc([N+](=O)[O-])cc1`, the TGI in the assay on MDA-MB-435 was 83.4 µM; in the assay on PC-3 prostate it was over 100 µM; with RPMI-8226 leukemia it was 27.2 µM; in the assay with SK-MEL-2 melanoma, over 100 µM; with NCI-H23 lung it was over 100 µM; in the assay with OVCAR-4 ovarian, over 100 µM. Besides, the TGI is over 100 µM in the assay with MDA-N; 64.5 µM in the assay with BT-549 breast; 89.8 µM in the assay on MCF7 breast; over 100 µM with HCT-15 colon; over 100 µM in the assay on SW-620 colon; 30.9 µM with KM12 colon. Further, the TGI was over 100 µM with NCI/ADR-RES ovarian; 33.5 µM in the assay on IGROV1 ovarian; over 100 µM in the assay on SN12C renal; 94.6 µM in the assay with HOP-92 NSCLC; 36.3 µM with NCI-H522 lung; over 100 µM in the assay with UO-31 renal.
In the case of `Cn1c(=O)oc2cc(C(=S)N3CCC(Cc4ccccc4)CC3)ccc21`, the TGI in the assay with MDA-MB-435, in the assay with PC-3 prostate, in the assay on SK-OV-3 ovarian, with A498 renal, in the assay on RPMI-8226 leukemia and in the assay on SK-MEL-2 melanoma was over 100 µM in each case. Also, the TGI with NCI-H23 lung, with MDA-N, in the assay with BT-549 breast, with MCF7 breast, in the assay with HCT-15 colon and in the assay with SW-620 colon was over 100 µM throughout. Besides, the TGI with KM12 colon, in the assay with NCI/ADR-RES ovarian, in the assay with IGROV1 ovarian and in the assay with SN12C renal was over 100 µM throughout.
